Test results published in US12162858B2, “Quinoline derivatives as inhibitors of AXL/MER RTK and CSF1R” (QURIENT CO., LTD., priority 2018, dated 2024).
Where two headings read alike, the source gives them in different places.

How the values were obtained:
CSF1R [1] = target: T1, CSF1R (Homo sapiens, UniProt P07333); assay: KINOMEscan competition binding assay for CSF1R; design: DNA tag for qPCR (not a peptide); host or cells: E. coli/T7 phage or HEK-293; conditions: @ 0.1 uM
Protocol: KINOMEscan™ is based on a competition binding assay that quantitatively measures the ability of a compound to compete with an immobilized, active-site directed ligand. The assay is performed by combining three components: DNA-tagged kinase; immobilized ligand; and a test compound. The ability of the test compound to compete with the immobilized ligand is measured via quantitative PCR of the DNA tag.
E. coli were grown to log-phase and infected with T7 phage and incubated with shaking at 32° C. until lysis. The lysates were centrifuged and filtered to remove cell debris. The remaining kinases were produced in HEK-293 cells and subsequently tagged with DNA for qPCR detection. Streptavidin-coated magnetic beads were treated with biotinylated small molecule ligands for 30 minutes at room temperature to generate affinity resins for kinase assays. The liganded beads were blocked with excess biotin and washed with blocking buffer (SeaBlock (Pierce), 1% BSA, 0.05% Tween 20, 1 mM DTT) to remove unbound ligand and to reduce non-specific binding. Binding reactions were assembled by combining kinases, liganded affinity beads, and test compounds in 1× binding buffer (20% SeaBlock, 0.17×PBS, 0.05% Tween 20, 6 mM DTT). Test compounds were prepared as 111× stocks in 100% DMSO. Kds were determined using an 11-point 3-fold compound dilution series with three DMSO control points. All compounds for Kd measurements are distributed by acoustic transfer (non-contact dispensing) in 100% DMSO. The compounds were then diluted directly into the assays such that the final concentration of DMSO was 0.9%. In case of % inhibition, test compounds were prepared as 40× stocks in 100% DMSO and directly diluted into the assay. All reactions performed in polypropylene 384-well plate. Each was a final volume of 0.02 ml. The assay plates were incubated at room temperature with shaking for 1 hour and the affinity beads were washed with wash buffer (1×PBS, 0.05% Tween 20). The beads were then re-suspended in elution buffer (1×PBS, 0.05% Tween 20, 0.5 μM non-biotinylated affinity ligand) and incubated at room temperature with shaking for 30 minutes. The kinase concentration in the eluates was measured by qPCR.
The CSF1R kinase binding activity results are shown in tables 1 (Kd) and 2 (percent inhibition at a concentration of 0.1 uM of compound to be tested).
Binding constants (Kds) were calculated with a standard dose-response curve using the Hill equation: […]
The Hill Slope was set to −1.
Curves were fitted using a non-linear least square fit with the Levenberg-Marquardt algorithm.
Binding % inhibition were calculated with as below:
[formula] • negative control=DMSO (100% Ctrl) • positive control=control compound (0% Ctrl)

CSF1R [2] = target: T1, CSF1R; assay: Cellular CSF1R inhibition ELISA (p-CSF1R, M-CSF-induced) using THP-1 cells; format: cell-based; design: THP-1 cells act as a model for human monocytes; endogenous in cells; host or cells: THP-1
Source text: The normal proto-oncogene c-fms encodes the macrophage growth factor (M-CSF, also known as CSF1) receptor involved in growth, survival, and differentiation along the monocyte-macrophage lineage. THP-1 cells act as a model for human monocytes. It confirms that an increased phosphorylation of CSF1R (p-CSF1R) can be observed, when induced by CSF1R ligand, CSF1.
The THP-1 cells should be maintained from 5×10^5 to 1×10^6 cells/ml in the cell culture flask. After centrifugation, the supernatant is aspirated. The cell pellet is re-suspended with pre-warmed growth medium (RPMI1640, 10% FBS, 0.05 mM 2-Mercaptoethanol) and cells are separated by pipetting 6 times up and down with a 10 ml serological pipette. The cell suspension has to be diluted to a final concentration of 2×10^5 cells per 80 μl with pre-warmed growth medium. 80 μl of cell suspension is added to all wells of plates. Cell-plates are incubated at 37° C./5% CO2. Dissolve compound in 100% DMSO to make 10 mM stock solutions (Aliquots stored in the Nitrogen Cabinet). Dilute 10 mM compounds solutions for 2-fold in 100% DMSO to get 5 mM solutions (10 μl+10 μl DMSO), and then make a 3-fold serial dilution (10 μl+20 μl DMSO) for 10 doses. For reference compounds: Dilute 10 mM compounds solutions for 20-fold in 100% DMSO to get 0.5 mM solutions (2 μl+38 μl DMSO), and then make a 3-fold serial dilution (10 μl+20 μl DMSO) for 10 doses. Transfer 2 μl diluted compounds to 198 μl medium to get solution of 50 μM concentration at top point for compounds and 5 μM for reference compounds. Then transfer 20 μl cpd solution into assay plate (Duplicate wells). The plate is incubated at 37° C./5% CO2 for 24 h. The final concentration of DMSO in all wells is […]. Reconstitute human M-CSF at 50 μg/ml in sterile water. (Aliquots stored in −80° C.). 1:1000 dilute human M-CSF by fresh medium to 50 ng/ml. After 24 h compounds treatment, transfer 25 μl diluted human M-CSF (50 ng/ml) to cell plate according to the plate map. The final concentration of human M-CSF in all wells is 10 ng/ml.
The plates is incubated at 37° C./5% CO2 for 5 min. In the beginning the appropriate amount of lysis buffer complete (100 μL/well) is prepared and stored on ice. After 5 min human M-CSF stimulation, wash plates once with 300 μL ice cold PBS. Then 100 μl lysis buffer is added to each well. The plate is shacked for 40 min at 4° C. Plates can now be stored at −20° C. After equilibrate the micro-well strips at room temperature, break off the required number of micro-wells. Place the micro-wells in the strip holder. Unused micro-wells must be resealed and stored at 4° C. immediately. Add 90 μl of cell lysate to the appropriate well. Seal with tape and press firmly onto top of micro-wells. Incubate the plate for 2 h at 37° C. Gently remove the tape and wash wells 4 times with 1× Wash Buffer, 200 μl each time for each well. Add 100 μl of reconstituted Detection Antibody (green color) to each well. Seal with tape and incubate the plate at 37° C. for 1 h. Repeat wash procedure. Add 100 μl of reconstituted HRP-Linked secondary antibody to each well. Seal with tape and incubate the plate for 30 min at 37° C. Repeat wash procedure. Add 100 μl of TMB Substrate to each well. Seal with tape and incubate the plate for 10 min at 37° C. or 30 min at 25° C. Calculations and Formulas: The following calculations and formulas are used for data analysis using XL Fit software: The curve fitting was made using the Sigmoidal Dose-Response Model (Fit model, 205).

[3] = read-out: CSF1R kinase binding activity, Percent (%) inhibition
[4] = read-out: CSF1R kinase binding activity, Range

T1 sequence (P07333 20-972): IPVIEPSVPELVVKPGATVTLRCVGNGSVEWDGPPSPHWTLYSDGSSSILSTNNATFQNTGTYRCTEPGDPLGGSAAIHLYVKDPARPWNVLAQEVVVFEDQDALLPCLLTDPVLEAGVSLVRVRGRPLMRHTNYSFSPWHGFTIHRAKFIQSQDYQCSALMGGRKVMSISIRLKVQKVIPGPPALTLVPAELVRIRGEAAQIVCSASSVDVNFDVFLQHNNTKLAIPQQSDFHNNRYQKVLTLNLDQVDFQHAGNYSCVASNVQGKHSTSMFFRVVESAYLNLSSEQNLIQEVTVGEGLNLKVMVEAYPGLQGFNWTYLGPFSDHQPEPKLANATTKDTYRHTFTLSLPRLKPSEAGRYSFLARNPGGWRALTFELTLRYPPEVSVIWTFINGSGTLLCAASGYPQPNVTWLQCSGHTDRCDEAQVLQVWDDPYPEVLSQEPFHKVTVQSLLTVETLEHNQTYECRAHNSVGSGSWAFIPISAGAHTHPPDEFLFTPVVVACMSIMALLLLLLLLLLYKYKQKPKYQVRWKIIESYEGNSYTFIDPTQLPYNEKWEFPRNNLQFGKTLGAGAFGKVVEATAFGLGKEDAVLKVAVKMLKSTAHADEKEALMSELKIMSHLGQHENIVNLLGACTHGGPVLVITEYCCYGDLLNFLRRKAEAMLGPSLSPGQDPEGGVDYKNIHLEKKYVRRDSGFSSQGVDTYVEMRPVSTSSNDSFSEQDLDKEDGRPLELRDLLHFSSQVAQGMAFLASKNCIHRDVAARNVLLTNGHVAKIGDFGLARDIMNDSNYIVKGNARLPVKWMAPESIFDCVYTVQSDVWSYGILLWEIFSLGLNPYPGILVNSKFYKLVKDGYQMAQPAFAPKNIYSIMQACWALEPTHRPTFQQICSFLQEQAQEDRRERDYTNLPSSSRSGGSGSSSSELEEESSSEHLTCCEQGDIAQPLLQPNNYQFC

inhibition at 0.1 µM (CSF1R [1]; [3]) [%] | inhibition at 0.1 µM (CSF1R [1]; [4]) [%] | IC50 (CSF1R [2]) [nM] | SMILES
38 | < 50 | ≥ 1000 | CCCn1cc(OCCNC)c(C(=O)Nc2ccc(Oc3ccnc4cc(OC)c(OC)cc34)cn2)n1 [Compound 140]
23 | < 50 | ≥ 1000 | CNCCOc1cn(C2CC2)nc1C(=O)Nc1ccc(Oc2ccnc3cc(OC)c(OC)cc23)cn1 [Compound 141]
92 | ≥ 80 | < 500 | COc1cc2nccc(Oc3ccc(NC(=O)c4nn(C5CC5)cc4NCCC(F)(F)F)nc3)c2cc1OC [Compound 142]
95 | ≥ 80 | < 500 | COc1cc2nccc(Oc3ccc(NC(=O)c4nn(C5CC5)cc4OCC4COC4)nc3)c2cc1OC [Compound 143]
73 | 50 to 80 | ≥ 1000 | COc1cc2nccc(Oc3ccc(NC(=O)c4nn(C5CC5)cc4OCC4CNC4)nc3)c2cc1OC [Compound 144]
43 | < 50 | ≥ 1000 | COc1cc2nccc(Oc3ccc(NC(=O)c4nn(C5CC5)cc4NCCC(F)(F)F)nn3)c2cc1OC [Compound 146]
85 | ≥ 80 | 500 to 1000 | COc1cc2nccc(Oc3ccc(NC(=O)c4nn(C5CC5)cc4OC(C)C)nn3)c2cc1OC [Compound 147]
60 | 50 to 80 | ≥ 1000 | COc1cc2nccc(Oc3ccc(NC(=O)c4nn(C5CC5)cc4NCC(F)(F)F)nn3)c2cc1OC [Compound 148]
74 | 50 to 80 | ≥ 1000 | COCCOc1cn(CC(C)O)nc1C(=O)Nc1ccc(Oc2ccnc3cc(OC)c(OC)cc23)cn1 (stereo not drawn) [Compound 150]
22 | < 50 | ≥ 1000 | CNCCn1cc(OCC(F)(F)F)c(C(=O)Nc2ccc(Oc3ccnc4cc(OC)c(OC)cc34)c(F)c2)n1 [Compound 155]
93 | ≥ 80 | 500 to 1000 | COc1cc2nccc(Oc3ccc(NC(=O)c4nn(CC(C)O)cc4OCC4CCC4)nc3)c2cc1OC (stereo not drawn) [Compound 163]
5 | < 50 | ≥ 1000 | CCCn1cc(OCCN(C)C)c(C(=O)Nc2ccc(Oc3ccnc4cc(OC)c(OC)cc34)c(F)c2)n1 [Compound 165]

More lines, now with the values behind:

SMILES | inhibition at 0.1 µM (CSF1R [1]; [3]) [%] | inhibition at 0.1 µM (CSF1R [1]; [4]) [%] | IC50 (CSF1R [2]) [nM]
CCCn1cc(OCC(F)(F)F)c(C(=O)Nc2ccc(Oc3ccnc4cc(OC)c(OC)cc34)nc2)n1 [Compound 139] | 37 | < 50 | ≥ 1000
COc1cc2nccc(Oc3ccc(NC(=O)c4nn(C5CC5)cc4NCC(F)(F)F)nc3)c2cc1OC [Compound 145] | 94 | ≥ 80 | < 500
COc1cc2nccc(Oc3ccc(NC(=O)c4nn(C5CC5)cc4OCC4CCC4)nn3)c2cc1OC [Compound 149] | 76 | 50 to 80 | ≥ 1000
COc1cc2nccc(Oc3ccc(NC(=O)c4nn(CC(C)O)cc4OC(C)C)nc3)c2cc1OC (stereo not drawn) [Compound 151] | 97 | ≥ 80 | < 500
COc1cc2nccc(Oc3ccc(NC(=O)c4nn(CC(C)O)cc4OCCF)nc3)c2cc1OC (stereo not drawn) [Compound 152] | 96 | ≥ 80 | < 500
COc1cc2nccc(Oc3ccc(NC(=O)c4nn(CCOC5CC5)cc4OCC(F)(F)F)nc3)c2cc1OC [Compound 153] | 95 | ≥ 80 | < 500
CNCCn1cc(OCC(F)(F)F)c(C(=O)Nc2ccc(Oc3ccnc4cc(OC)c(OC)cc34)cc2F)n1 [Compound 154] | 47 | < 50 | ≥ 1000
CNCCn1cc(OCC(F)(F)F)c(C(=O)Nc2ccc(Oc3ccnc4cc(OC)c(OC)cc34)c(C)c2)n1 [Compound 156] | 49 | < 50 | ≥ 1000
COc1cc2nccc(Oc3ccc(NC(=O)c4nn(C5CCN(C)C5)cc4OCC(F)(F)F)nn3)c2cc1OC (stereo not drawn) [Compound 157] | 81 | ≥ 80 | 500 to 1000
CCCn1cc(NCCC(F)(F)F)c(C(=O)Nc2ccc(Oc3ccnc4cc(OC)c(OC)cc34)cn2)n1 [Compound 158] | 91 | ≥ 80 | < 500
CCCn1cc(OCC2CNC2)c(C(=O)Nc2ccc(Oc3ccnc4cc(OC)c(OC)cc34)cn2)n1 [Compound 159] | 64 | 50 to 80 | ≥ 1000
CNCCOc1cn(C2CC2)nc1C(=O)Nc1ccc(Oc2ccnc3cc(OC)c(OC)cc23)nn1 [Compound 160] | 25 | < 50 | ≥ 1000
COc1cc2nccc(Oc3ccc(NC(=O)c4nn(C5CC5)cc4OCC4COC4)nn3)c2cc1OC [Compound 161] | 14 | < 50 | ≥ 1000
COc1cc2nccc(Oc3ccc(NC(=O)c4nn(C5CC5)cc4OCC(F)F)nn3)c2cc1OC [Compound 162] | 91 | ≥ 80 | < 500
CCCn1cc(OCC2CCOCC2)c(C(=O)Nc2ccc(Oc3ccnc4cc(OC)c(OC)cc34)cn2)n1 [Compound 164] | 73 | 50 to 80 | ≥ 1000
